Laboratory results reported in patent US4345938A, “Herbicidal 2-haloacetanilides” (Monsanto Company, priority 1980, dated 1982).
Where two headings read alike, the source gives them in different places.

Assays:
Type in all cases: in vivo
[1] = test system: Monochoria vaginalis; test: Field transplant rice test, applied 9 DAT, MV; conditions: for inhibition at 375 g/ha / inhibition at 750 g/ha / inhibition at 1500 g/ha / inhibition at 3000 g/ha: Pontederia vaginalis, 216 h, read-out: Percent Inhibition, MV; for inhibition at 375 g/ha: 0.375 Kg/Ha; for inhibition at 750 g/ha: 0.75 Kg/Ha; for inhibition at 1500 g/ha: 1.5 Kg/Ha; for inhibition at 3000 g/ha: 3.0 Kg/Ha
Description: (§1) In the discussion of data below, occasional reference is made to herbicide application rates symbolized as "GR15 " and "GR85 "; these rates are given in kilograms per hectare (kg/ha) which are convertible into pounds per acre (lbs/A) by dividing the kg/ha rate by 1.12.
(§2) A further guide to the effectiveness of a chemical as a selective herbicide is the "selectivity factor" ("SF") for a herbicide in given crops and weeds. The selectivity factor is a measure of the relative degree of crop safety and weed injury and is expressed in terms of the GR15 /GR85 ratio, i.e., the GR15 rate for the crop divided by the GR85 rate for the weed, both rates in kg/ha (lb/A.)
(§3) The test data in Table III for all compounds was obtained under identical test conditions. The weeds used in the tests herein have the following abbreviations in the tables: Echinochloa crus-galli (EC), Monochloria vaginalis (MV), Cyperus Serotinus (CS), Eleocharis Kuroguwai (EK) and Sagittaria trifolia (ST).
(§4) In further comparative tests, a preferred compound of this invention (Example 1) was tested in the field with prior art Compounds A-D. These tests were conducted under conditions reflecting herbicide application times generally favorable to all herbicides in the test. The timing of application of herbicides to transplant rice is very important, whether, as in some instances, prior to transplanting the rice; in other instances, at the time of transplanting or else after transplanting. Application times are conventionally referred to as "days before transplant" (DBT) or "days after transplant" ("DAT"). The field test data in Table IV was obtained from a test in which the herbicides were applied at the time of transplant, i.e., "0 DAT", with observations being made weekly up to six weeks after transplant ("WAT") beginning at two weeks after transplant; for illustrative and representative purposes, only the early, middle and late period observations, i.e., 2 WAT, 4 WAT and 6 WAT, are shown in Table IV. The data in Table IV is for rates of application common to all herbicides in the test, i.e., from 3.0 kg/ha (2.67 lb/A) down to 0.375 kg/ha (0.34 lb/A). All herbicides were applied at their actual or expected use rates, i.e., as granules containing 2.5% by weight herbicide for the compound of Example 1, Compounds B, C and D and 5.0% by weight for Compound A.
(§5) In Table V are presented field data showing the relative performance of the compound of Example 1 and Compounds A-D applied 9 DAT, with observations being made weekly from 3 WAT to 7 WAT; again, for illustrative and representative purposes, only the early, middle and late period observations are reported in Table V, the herbicide rates and concentrations of active ingredients the same as is shown in Table IV.

[2] = test system: Rice; test: Field transplant rice test, applied 9 DAT, rice injury; conditions: for inhibition at 375 g/ha / inhibition at 750 g/ha / inhibition at 1500 g/ha / inhibition at 3000 g/ha: Oryza sativa, 216 h, read-out: Percent Inhibition, Rice; for inhibition at 375 g/ha: 0.375 Kg/Ha; for inhibition at 750 g/ha: 0.75 Kg/Ha; for inhibition at 1500 g/ha: 1.5 Kg/Ha; for inhibition at 3000 g/ha: 3.0 Kg/Ha
Protocol: as §4, §5

[3] = test system: Eleocharis kuroguwai; test: Field transplant rice test, applied 9 DAT, EK; conditions: for inhibition at 375 g/ha / inhibition at 750 g/ha / inhibition at 1500 g/ha / inhibition at 3000 g/ha: Eleocharis kuroguwai, 216 h, read-out: Percent Inhibition, EK; for inhibition at 375 g/ha: 0.375 Kg/Ha; for inhibition at 750 g/ha: 0.75 Kg/Ha; for inhibition at 1500 g/ha: 1.5 Kg/Ha; for inhibition at 3000 g/ha: 3.0 Kg/Ha
Description: as §1, §2, §3, §4, §5

[4] = test system: Echinochloa crus-galli; test: Greenhouse transplant rice test, EC; conditions: about 3 WAT, read-out: Percent Inhibition, EC
Description: (§6) The test procedure used in this greenhouse test is as follows: Ray silt loam top soil containing about 0.05% by weight of krillium and sifted through a […] screen is fumigated about 5-10 days prior to use. Pots are then filled with said Ray silt loam soil to a level to allow for a 1 in. (2.54 cm) flooding depth. Rice plants (Bluebelle) of 2 to 3 weeks age are transplanted to the pots and bulbs or seeds of the test weeds also planted in the pots. The pots are then flooded and the test chemical applied to the surface of the flood water. The flood water is reduced to allow for germination of the Echinochloa crus-galli (barnyardgrass) seed and subsequently reflooded and maintained in that condition. Observations of percent inhibition using a scale of 0-100% are made about 3 weeks after transplant (WAT).
as §3

[5] = test system: Echinochloa crus-galli; test: Field transplant rice test, applied 0 DAT, EC; conditions: 0 h, read-out: Percent Inhibition, EC; for inhibition at 375 g/ha: 0.375 Kg/Ha; for inhibition at 750 g/ha: 0.75 Kg/Ha; for inhibition at 1500 g/ha: 1.5 Kg/Ha; for inhibition at 3000 g/ha: 3.0 Kg/Ha
Protocol: as §3, §4

[6] = test system: Cyperus serotinus; test: Greenhouse transplant rice test, CS; conditions: about 3 WAT, read-out: Percent Inhibition, CS
Description: as §6, §3

[7] = test system: Eleocharis kuroguwai; test: Greenhouse transplant rice test, EK; conditions: about 3 WAT, read-out: Percent Inhibition, EK
Description: as §6, §3

Compound: CCCCOc1cccc(CC)c1N(C)C(=O)CCl [Example 1, N-methyl-2'-n-butoxy-6'-ethyl-2-chloroacetanilide]
- inhibition at 375 g/ha ([1]; 3 WAT): 100%
- inhibition at 375 g/ha ([1]; 5 WAT): 100%
- inhibition at 375 g/ha ([1]; 7 WAT): 100%
- inhibition at 750 g/ha ([1]; 3 WAT): 100%
- inhibition at 750 g/ha ([1]; 5 WAT): 100%
- inhibition at 750 g/ha ([1]; 7 WAT): 100%
- inhibition at 1500 g/ha ([1]; 3 WAT): 100%
- inhibition at 1500 g/ha ([1]; 5 WAT): 100%
- inhibition at 1500 g/ha ([1]; 7 WAT): 100%
- inhibition at 3000 g/ha ([1]; 3 WAT): 100%
- inhibition at 3000 g/ha ([1]; 5 WAT): 100%
- inhibition at 3000 g/ha ([1]; 7 WAT): 100%
- selectivity factor (GR15/GR85), MV in transplant rice ([1]; between 3 WAT and 7 WAT): 16
- inhibition at 375 g/ha ([2]; 3 WAT): 13%
- inhibition at 375 g/ha ([2]; 5 WAT): 7%
- inhibition at 375 g/ha ([2]; 7 WAT): 7%
- inhibition at 750 g/ha ([2]; 3 WAT): 7%
- inhibition at 750 g/ha ([2]; 5 WAT): 2%
- inhibition at 750 g/ha ([2]; 7 WAT): 0%
- inhibition at 1500 g/ha ([2]; 3 WAT): 10%
- inhibition at 1500 g/ha ([2]; 5 WAT): 7%
- inhibition at 1500 g/ha ([2]; 7 WAT): 5%
- inhibition at 3000 g/ha ([2]; 3 WAT): 15%
- inhibition at 3000 g/ha ([2]; 5 WAT): 15%
- inhibition at 3000 g/ha ([2]; 7 WAT): 10%
- rate at which safety in rice is maintained ([2]; maximum test rate): ≥ 3.0 kg/ha
- inhibition at 375 g/ha ([3]; 3 WAT): 80%
- inhibition at 375 g/ha ([3]; 5 WAT): 52%
- inhibition at 375 g/ha ([3]; 7 WAT): 15%
- inhibition at 750 g/ha ([3]; 3 WAT): 83%
- inhibition at 750 g/ha ([3]; 5 WAT): 68%
- inhibition at 750 g/ha ([3]; 7 WAT): 13%
- inhibition at 1500 g/ha ([3]; 3 WAT): 82%
- inhibition at 1500 g/ha ([3]; 5 WAT): 65%
- inhibition at 1500 g/ha ([3]; 7 WAT): 0%
- inhibition at 3000 g/ha ([3]; 3 WAT): 93%
- inhibition at 3000 g/ha ([3]; 5 WAT): 93%
- inhibition at 3000 g/ha ([3]; 7 WAT): 67%
- selectivity factor (GR15/GR85), EK in transplant rice ([3]; up to 5 WAT): about 2
- inhibition at 280 g/ha ([4]; 0.28 Kg/Ha): 100%
- inhibition at 560 g/ha ([4]; 0.56 Kg/Ha): 100%
- inhibition at 1120 g/ha ([4]; 1.12 Kg/Ha): 100%
- inhibition at 2240 g/ha ([4]; 2.24 Kg/Ha): 100%
- inhibition at 375 g/ha ([5]; 2 WAT): 97%
- inhibition at 375 g/ha ([5]; 4 WAT): 100%
- inhibition at 375 g/ha ([5]; 6 WAT): 100%
- inhibition at 750 g/ha ([5]; 2 WAT): 98%
- inhibition at 750 g/ha ([5]; 4 WAT): 100%
- inhibition at 750 g/ha ([5]; 6 WAT): 98%
- inhibition at 1500 g/ha ([5]; 2 WAT): 100%
- inhibition at 1500 g/ha ([5]; 4 WAT): 100%
- inhibition at 1500 g/ha ([5]; 6 WAT): 100%
- inhibition at 3000 g/ha ([5]; 2 WAT): 98%
- inhibition at 3000 g/ha ([5]; 4 WAT): 100%
- inhibition at 3000 g/ha ([5]; 6 WAT): 100%
- inhibition at 280 g/ha ([6]; 0.28 Kg/Ha): 85%
- inhibition at 560 g/ha ([6]; 0.56 Kg/Ha): 100%
- inhibition at 1120 g/ha ([6]; 1.12 Kg/Ha): 100%
- inhibition at 2240 g/ha ([6]; 2.24 Kg/Ha): 100%
- inhibition at 280 g/ha ([7]; 0.28 Kg/Ha): 100%
- inhibition at 560 g/ha ([7]; 0.56 Kg/Ha): 100%
- inhibition at 1120 g/ha ([7]; 1.12 Kg/Ha): 100%
- inhibition at 2240 g/ha ([7]; 2.24 Kg/Ha): 100%
